In US20260183253A1, “TREATING LIVER CANCERS WITH HYDROXYUREAMETHYL ACYLFULVENE” (Lantern Pharma Inc., priority 2023, published 2026):

System: liver cancer cell lines including SNU387, SNU475, SNU449, and HEPG2
Assay: Cell viability, CellTiter-Fluor assay, 72 h treatment
Format: cell-based
Settings: values shown only in FIG. 1
Description: Liver cancer cell lines including SNU387, SNU475, SNU449, and HEPG2, were obtained from the American Type Culture Collection (ATCC), ensuring standardized and reliable cell sources. […] Cells were seeded into 96-well plates at a density optimized for exponential growth, allowing sufficient space for cellular proliferation during the course of the experiment. Each well was seeded with an equal number of cells to ensure consistency across the experiment. Following seeding, cells were allowed to adhere and acclimatize for 24 hours at 37° C. in a humidified incubator with 5% CO2, maintaining optimal growth conditions. Once acclimated, the cells were treated with either a vehicle control (DMSO) or varying concentrations of LP-184. […]
Following the 72-hour treatment period, cell viability was assessed using the CellTiter-Fluor® assay from Promega, a sensitive fluorescence-based assay that quantifies the number of viable cells based on the presence of active cellular proteases. […]
The plates were then incubated for an additional 30 minutes at 37° C. to allow the enzymatic reaction to occur, resulting in the cleavage of the fluorogenic substrate by viable cells. […] The fluorescence signal was measured using a plate reader set to an excitation wavelength of 400 nm and an emission wavelength of 505 nm, parameters optimized for the GF-AFC substrate. […]

SMILES: CC1=C(CN(O)C(N)=O)C2=C(C)C3(CC3)[C@@](C)(O)C(=O)C2=C1 [LP-184, (−)-hydroxyureamethyl acylfulvene]
- IC50 (nM) against various liver cancer cell lines: nanomolar potency
